Measurements reported in BindingDB's records for PubMed 33228976 (Massachusetts College of Pharmacy and Health Sciences …, 2021).

Biological target: GTPase KRas (Homo sapiens, UniProt P01116)
Test: Antiproliferative activity against human COLO 320DM cells harboring wild type KRAS assessed as reduction in cell viability incubated for 24 hrs in presence of MVA

GTPase KRas, sequence (P01116 whole entry): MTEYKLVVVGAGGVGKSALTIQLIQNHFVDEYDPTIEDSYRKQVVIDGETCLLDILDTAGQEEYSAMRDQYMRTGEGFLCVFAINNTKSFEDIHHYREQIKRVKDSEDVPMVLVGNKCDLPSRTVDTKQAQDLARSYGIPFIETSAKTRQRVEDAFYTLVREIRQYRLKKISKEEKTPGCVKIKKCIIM

CCCC[C@@H](C)C=C(C)C=C(C)C(=O)NC1=C[C@@](O)(C=CC=CC=CC(=O)NC2C(=O)CCC2=O)[C@@H]2O[C@@H]2C1=O [(R)-2,4,6-Trimethyl-deca-2,4-dienoic acid {(1S,5S,6R)-5-hydroxy-5-[(1E,3E,5E)-6-(2-hydroxy-5-oxo-cyclopent-1-enylcarbamoyl)-hexa-1,3,5-trienyl]-2-oxo-7-oxa-bicyclo[4.1.0]hept-3-en-3-yl}-amide]
IC50: 3.58 µM
